In article PMC5146860, “Succinate production positively correlates with the affinity of the global transcription factor Cra for its effector FBP in Escherichia coli” (Biotechnology for Biofuels, 2016):

Key:
Assay in all cases: isothermal titration calorimetry
[1] = target: T1, Cra (catabolite repressor/activator; FruR) (Escherichia coli, UniProt P0ACP1, N73Y/D148R/G274R); conditions: 25 °C; 50 mM FBP injected into 15 μM protein (Fig. 5 legend prints 15 mM); effector-binding site; mutant of strain Tang1688
T1 construct: 2IKS is effector-free regulatory domain used for docking

[2] = target: T2, Cra (catabolite repressor/activator; FruR) (Escherichia coli, UniProt P0ACP1, D148R/A248F/G274R); conditions: 25 °C; 50 mM FBP injected into 15 μM protein (Fig. 5 legend prints 15 mM); effector-binding site; mutant of strain Tang1684
T2 construct: 2IKS is effector-free regulatory domain used for docking

[3] = target: T3, Cra (catabolite repressor/activator; FruR) (Escherichia coli, UniProt P0ACP1, D101R/D148R/G274R); conditions: 25 °C; 50 mM FBP injected into 15 μM protein (Fig. 5 legend prints 15 mM); effector-binding site; mutant of strain Tang1683
T3 construct: 2IKS is effector-free regulatory domain used for docking

[4] = target: T4, Cra (catabolite repressor/activator; FruR) (Escherichia coli, UniProt P0ACP1); conditions: 25 °C; 50 mM FBP injected into 15 μM protein (Fig. 5 legend prints 15 mM); effector-binding site
T4 construct: 2IKS is effector-free regulatory domain used for docking

Kd [1]: 809.1 ± 4.6 nM
Kd [2]: 728.3 ± 3.8 nM
Kd [3]: 154 ± 4.3 nM
Kd [4]: 1360 ± 6.2 nM
SMILES: O=P(O)(O)OC[C@H]1OC(O)(COP(=O)(O)O)[C@@H](O)[C@@H]1O (stereo partly shown) [fructose-1,6-bisphosphate]
